Among the data in BindingDB's records for patent US11718589 (Case Western Reserve University, 2023) are IC50 values, retold here.

A word on the IC50: it is the concentration at which inhibition is half-maximal.

The test deals with T1, 15-hydroxyprostaglandin dehydrogenase [NAD(+)] (Homo sapiens, UniProt P15428).
T1 sequence (P15428 whole entry): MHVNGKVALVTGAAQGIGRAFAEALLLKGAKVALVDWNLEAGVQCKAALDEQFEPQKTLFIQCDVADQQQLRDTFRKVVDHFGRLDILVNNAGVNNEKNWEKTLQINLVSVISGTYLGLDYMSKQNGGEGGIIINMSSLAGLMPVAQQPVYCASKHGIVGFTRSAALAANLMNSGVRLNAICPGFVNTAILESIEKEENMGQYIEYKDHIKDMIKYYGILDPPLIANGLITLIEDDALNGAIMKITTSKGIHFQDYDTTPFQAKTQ
Briefly: In Vitro Assay.
On to `CCCC[S+]([O-])c1cc2nc(-c3ccc(OC)cc3)cc(-c3ccc(F)cc3)n2n1` (stereo unspecified) [US11718589, Compound 6a], for which the IC50 stood at 59 nM.

Turning to `CCCCS(=O)(=O)c1cc2nc(-c3ccc(OC)cc3)cc(C(F)(F)F)n2n1` [US11718589, Compound 4a], the IC50 was > 2500 nM.

Regarding `COc1ccc(-c2cc(C(F)(F)F)n3nc(C(=O)NCCO)cc3n2)cc1` [US11718589, Compound 12a], the IC50 was > 2500 nM.

`CCCC[S+]([O-])c1cc2nc(-c3ccc(OC)cc3)cc(-c3ccccc3)n2n1` (stereo unspecified) [US11718589, Compound 5a] had an IC50 of 39 nM.

Compound `CCCC[S+]([O-])c1cc2nc(-c3ccc(OC)cc3)cc(C(F)(F)F)n2n1` (stereo unspecified) [US11718589, Compound 3a] came in with an IC50 of 35.5 nM.

Regarding `CCNC(=O)c1cc2nc(-c3ccc(OC)cc3)cc(C(F)(F)F)n2n1` [US11718589, Compound 7a], the IC50 is > 2500 nM.
